# Data from the NIST ThermoML archive (doi:10.1021/je0603067).
# Numbers after ± are expanded uncertainties.
# Conditions: Crystal; Heating/Cooling curves
row,Triple point temperature,SMILES
1,181.99 ± 0.2 K,[N-]=[N+]=O [nitrous oxide]
2,216.56 ± 0.2 K,O=C=O [carbon dioxide]

row,SMILES,Triple point temperature
1,FC(F)C(F)(F)F [pentafluoroethane],173.05 ± 0.2 K
